Test results from ChEMBL document CHEMBL2146452, “Creation of readily accessible and orally active analogue of cortistatin a” (ACS Med Chem Lett, 2012).
Each block holds one molecule with its values, some of them ahead of it. Calls of active or inactive are those of the source. No cut-off for these calls is given here.

Assays:
[1] = Antiproliferative activity against human KB3-1 cells after 72 hrs by WST8 assay; type: cell-based; conditions: KB 3-1, 72 h
[2] = tested on: HUVEC; experiment: Antiproliferative activity against HUVEC after 72 hrs by WST8 assay; type: functional, cell-based; conditions: Homo sapiens
[3] = tested on: KB 3-1; experiment: Selectivity index, ratio of IC50 for human KB3-1 cells to IC50 for HUVEC
[4] = Antiproliferative activity against mouse Neuro2a cells; type: cell-based; conditions: N2a
[5] = tested on: K562; experiment: Antiproliferative activity against human K562 cells; type: cell-based
[6] = tested on: CCRF S-180; experiment: Antitumor activity against mouse S180 cells xenografted in po dosed ddY mouse assessed as tumor growth inhibition; type: functional, organism-based
[7] = tested on: NHDF; experiment: Antiproliferative activity against human NHDF cells; type: cell-based
[8] = tested on: CCRF S-180; experiment: Antitumor activity against mouse S180 cells xenografted in ddY mouse assessed as tumor growth inhibition at >25 mg/kg, po administered QOD for 14 days relative to vehicle-treated control; type: functional
[9] = tested on: Mus musculus; experiment: Toxicity in S180 cells xenografted ddY mouse assessed as diarrhea up to 100 mg/kg, po administered QOD for 14 days; type: organism-based, CCRF S-180; design: dose 100 mg/kg, route oral; conditions: in vivo, 336 h
[10] = tested on: Mus musculus; experiment: Antiangiogenic activity in ddY mouse assessed as inhibition of bFGF-induced capillary formation in matrigel plug measured as hemoglobin level at 5 to 25 mg/kg, po administered QOD for 10 days by Drabkin reagent-based assay; type: functional, organism-based
[11] = tested on: CCRF S-180; experiment: Antitumor activity against mouse S180 cells xenografted in ddY mouse assessed as tumor growth inhibition at >5 mg/kg, po administered QOD for 14 days relative to vehicle-treated control; type: functional, organism-based
[12] = tested on: Mus musculus; experiment: Toxicity in S180 cells xenografted ddY mouse assessed as body weight loss up to 100 mg/kg, po administered QOD for 14 days relative to vehicle-treated control; type: organism-based, CCRF S-180; design: dose 100 mg/kg, route oral; conditions: in vivo, 336 h

SMILES: CN(C)C1CC=C(/C=C2/CC[C@@]3(C)[C@@H](CC[C@@H]3c3ccc4ccncc4c3)C2)CC1 (some centres undefined)
IC50 [1]: 18 µM
IC50 [2]: 2 µM
Ratio IC50 [3]: 9

SMILES: CN(C)c1ccc(/C=C2/CC[C@@]3(C)[C@@H](CC[C@@H]3c3ccc4ccncc4c3)C2)cc1
IC50 [1]: 20 µM
IC50 [2]: 15 µM
Ratio IC50 [3]: 1.5

IC50 [5]: 6 µM
SMILES: C[C@]12C=CC3=CC4=C(CCCC4=O)O[C@H]3[C@@H]1CC[C@@H]2c1ccc2ccncc2c1
IC50 [4]: 10.5 µM
IC50 [1]: 10.5 µM
IC50 [2]: 0.1 µM
Ratio IC50 [3]: >100
growth inhibition (GI) [6]: Active
IC50 [7]: 10.5 µM

IC50 [5]: 5 µM
SMILES: C[C@]12CCC3=CC4=C(CCCC4=O)O[C@H]3[C@@H]1CC[C@@H]2c1ccc2ccncc2c1
growth inhibition (GI) [8]: 90%
IC50 [4]: 10.5 µM
Activity [9]: Non-toxic
inhibition [10]: Active
growth inhibition (GI) [11]: Active
IC50 [1]: 10.5 µM
IC50 [2]: 0.035 µM
Activity [12]: Non-toxic
Ratio IC50 [3]: >100
IC50 [7]: 4 µM
